Data from US6737383B1, “Herbicidal oxadiazolidines” (priority 1999, dated 2004).

Legend:
surinam grass = assay: Test B pre/postemergence surinam grass; assay type: in vivo, Brachiaria decumbens
Summary of the method: (§1)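 Herbicidal effect was estimated by eye on a ten-point control scale after plants spent twelve to sixteen days in a greenhouse following soil or foliar treatment. Foliar sprays targeted plants at one to four leaves; all doses were formulated in a non-phytotoxic solvent with surfactant.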

crabgrass = assay: Test B pre/postemergence crabgrass; assay type: in vivo, Digitaria sanguinalis
Summary of the method: as §1

giant foxtail = assay: Test B pre/postemergence giant foxtail; assay type: in vivo, Setaria faberii
Summary of the method: as §1

rape = assay: Test B pre/postemergence rape; assay type: in vivo, Brassica napus
Summary of the method: as §1

pigweed = assay: Test B pre/postemergence pigweed; assay type: in vivo, Amaranthus retroflexus
Summary of the method: as §1

blackgrass = assay: Test B pre/postemergence blackgrass; assay type: in vivo, Alopecurus myosuroides
Summary of the method: as §1

velvetleaf = assay: Test B pre/postemergence velvetleaf; assay type: in vivo, Abutilon theophrasti
Summary of the method: as §1

cocklebur = assay: Test B pre/postemergence cocklebur; assay type: in vivo, Xanthium strumarium
Summary of the method: as §1

smallflower flatsedge = assay: Test B flood test smallflower flatsedge; assay type: in vivo, Cyperus difformis
Summary of the method: (§2)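 Read-out is a visual response score from 0 (no effect) to 10 (complete control), assigned by comparison with untreated controls. Treatment was applied at the 2-leaf stage, and plants stayed in the greenhouse for twelve to sixteen days before scoring.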

duck salad = assay: Test B flood test duck salad; assay type: in vivo, Heteranthera limosa
Summary of the method: as §2

bedstraw = assay: Test B pre/postemergence bedstraw; assay type: in vivo, Galium aparine; details: scale of 0 to 10 where 0 is no effect and 10 is complete control
Summary of the method: as §1

rice = assay: Test B flood test rice; assay type: in vivo, Oryza sativa
Summary of the method: as §2

morningglory = assay: Test B pre/postemergence morningglory; assay type: in vivo, Ipomoea hederacea
Summary of the method: as §1

soybean = assay: Test B pre/postemergence soybean; assay type: in vivo, Glycine max
Summary of the method: as §1

corn = assay: Test B pre/postemergence corn; assay type: in vivo, Zea mays
Summary of the method: as §1

sugar beet = assay: Test B pre/postemergence sugar beet; assay type: in vivo, Beta vulgaris
Summary of the method: as §1

wheat = assay: Test B pre/postemergence wheat; assay type: in vivo, Triticum aestivum
Summary of the method: as §1

purple nutsedge = assay: Test B pre/postemergence purple nutsedge; assay type: in vivo, Cyperus rotundus
Summary of the method: as §1

bamyardgrass = assay: Test B flood test barnyardgrass; assay type: in vivo, Echinochloa crus-galli
Summary of the method: as §2

wild oat = assay: Test B pre/postemergence wild oat; assay type: in vivo, Avena fatua
Summary of the method: as §1

[1] = Preemergence, Rate 250 g/ha, scale of 0 to 10 where 0 is no effect and 10 is complete control
[2] = Preemergence, Rate 500 g/ha, scale of 0 to 10 where 0 is no effect and 10 is complete control
[3] = Rate 62 g/ha, Postemergence, scale 0 to 10, 0 no effect, 10 complete control
[4] = Rate 125 g/ha, Postemergence, scale of 0 to 10 where 0 is no effect and 10 is complete control
[5] = Rate 250 g/ha, Postemergence, scale of 0 to 10 where 0 is no effect and 10 is complete control
[6] = Rate 500 g/ha, Postemergence, scale 0 to 10, 0 no effect, 10 complete control
[7] = Rate 62 g/ha, headed Pre-emergence (flood test species), scale 0 to 10 (0 no effect, 10 complete control)
[8] = Rate 125 g/ha, Pre-emergence, flood test species, scale 0 to 10 where 0 is no effect and 10 is complete control
[9] = Rate 250 g/ha, Pre-emergence, flood-test species, scale 0 to 10, 0 is no effect, 10 is complete control
[10] = Rate 500 g/ha, Pre-emergence, flood test species, scale 0 to 10 (0 no effect, 10 complete control)

Compound: CCc1cccc(CC)c1-n1c(=O)on(C(=O)N(c2ccccc2)C(C)C)c1=O [Compound 305]
- B. signalgrass plant response rating (0 to 10 scale, 0 is no effect, 10 is complete control) (surinam grass; Preemergence, Rate 125 g/ha): 0
- B. signalgrass plant response rating (surinam grass; [1]): 0
- B. signalgrass plant response rating (surinam grass; [2]): 5
- B. signalgrass plant response rating (surinam grass; [3]): 0
- B. signalgrass plant response rating (surinam grass; [4]): 0
- Plant response rating, B. signalgrass (surinam grass; [5]): 0
- B. signalgrass plant response rating (surinam grass; [6]): 0
- Crabgrass plant response rating (0 to 10 scale) (crabgrass; Preemergence, Rate 125 g/ha): 4
- Crabgrass plant response rating (crabgrass; [1]): 6
- Crabgrass plant response rating (crabgrass; [2]): 7
- Crabgrass plant response rating (crabgrass; [3]): 0
- Crabgrass plant response rating (crabgrass; [4]): 0
- Plant response rating, Crabgrass (crabgrass; [5]): 0
- Giant foxtail plant response rating (0 to 10 scale) (giant foxtail; Preemergence, Rate 125 g/ha): 8
- Giant foxtail plant response rating (giant foxtail; [1]): 9
- Giant foxtail plant response rating (giant foxtail; [2]): 10
- Giant foxtail plant response rating (giant foxtail; [3]): 0
- Giant foxtail plant response rating (giant foxtail; [4]): 0
- Plant response rating, Giant foxtail (giant foxtail; [5]): 0
- Rape plant response rating (0 to 10 scale) (rape; Preemergence, Rate 125 g/ha): 0
- Rape plant response rating (rape; [1]): 0
- Rape plant response rating (rape; [2]): 0
- Rape plant response rating (rape; [3]): 0
- Rape plant response rating (rape; [4]): 0
- Plant response rating, Rape (rape; [5]): 0
- Redroot pigweed plant response rating (0 to 10 scale) (pigweed; Preemergence, Rate 125 g/ha): 0
- Redroot pigweed plant response rating (pigweed; [1]): 3
- Redroot pigweed plant response rating (pigweed; [2]): 7
- Redroot pigweed plant response rating (pigweed; [3]): 3
- Redroot pigweed plant response rating (pigweed; [4]): 3
- Plant response rating, Redroot pigweed (pigweed; [5]): 4
- Blackgrass plant response rating (0 to 10 scale) (blackgrass; Preemergence, Rate 125 g/ha): 0
- Blackgrass plant response rating (blackgrass; [1]): 0
- Blackgrass plant response rating (blackgrass; [2]): 4
- Blackgrass plant response rating (blackgrass; [3]): 0
- Blackgrass plant response rating (blackgrass; [4]): 0
- Plant response rating, Blackgrass (blackgrass; [5]): 0
- Blackgrass plant response rating (blackgrass; [6]): 0
- Velvetleaf plant response rating (0 to 10 scale) (velvetleaf; Preemergence, Rate 125 g/ha): 0
- Velvetleaf plant response rating (velvetleaf; [1]): 0
- Velvetleaf plant response rating (velvetleaf; [2]): 0
- Velvetleaf plant response rating (velvetleaf; [3]): 0
- Velvetleaf plant response rating (velvetleaf; [4]): 0
- Plant response rating, Velvetleaf (velvetleaf; [5]): 0
- Cocklebur plant response rating (0 to 10 scale) (cocklebur; Preemergence, Rate 125 g/ha): 0
- Cocklebur plant response rating (cocklebur; [1]): 0
- Cocklebur plant response rating (cocklebur; [2]): 0
- Cocklebur plant response rating (cocklebur; [3]): 0
- Cocklebur plant response rating (cocklebur; [4]): 0
- Plant response rating, Cocklebur (cocklebur; [5]): 0
- Cocklebur plant response rating (cocklebur; [6]): 0
- S. Flatsedge plant response rating (smallflower flatsedge; [7]): 0
- S. Flatsedge plant response rating (smallflower flatsedge; [8]): 0
- S. Flatsedge plant response rating (smallflower flatsedge; [9]): 0
- S. Flatsedge plant response rating (smallflower flatsedge; [10]): 0
- Ducksalad plant response rating (duck salad; [7]): 0
- Ducksalad plant response rating (duck salad; [8]): 0
- Ducksalad plant response rating (duck salad; [9]): 0
- Ducksalad plant response rating (duck salad; [10]): 0
- Bedstraw plant response rating (bedstraw; Preemergence, Rate 250 g/ha): 0
- Bedstraw plant response rating (bedstraw; Preemergence, Rate 500 g/ha): 0
- Bedstraw plant response rating (bedstraw; Rate 125 g/ha, Postemergence): 0
- Rice plant response rating (rice; [7]): 0
- Rice plant response rating (rice; [8]): 0
- Rice plant response rating (rice; [9]): 0
- Rice plant response rating (rice; [10]): 0
- Morningglory plant response rating (0 to 10 scale) (morningglory; Preemergence, Rate 125 g/ha): 0
- Morningglory plant response rating (morningglory; [1]): 0
- Morningglory plant response rating (morningglory; [2]): 0
- Morningglory plant response rating (morningglory; [3]): 0
- Morningglory plant response rating (morningglory; [4]): 0
- Plant response rating, Morningglory (morningglory; [5]): 0
- Soybean plant response rating (0 to 10 scale) (soybean; Preemergence, Rate 125 g/ha): 0
- Soybean plant response rating (soybean; [1]): 0
- Soybean plant response rating (soybean; [2]): 0
- Soybean plant response rating (soybean; [3]): 4
- Soybean plant response rating (soybean; [4]): 4
- Plant response rating, Soybean (soybean; [5]): 4
- Corn plant response rating (0 to 10 scale) (corn; Preemergence, Rate 125 g/ha): 0
- Corn plant response rating (corn; [1]): 0
- Corn plant response rating (corn; [2]): 0
- Corn plant response rating (corn; [3]): 0
- Corn plant response rating (corn; [4]): 0
- Plant response rating, Corn (corn; [5]): 0
- Corn plant response rating (corn; [6]): 0
- Sugarbeets plant response rating (0 to 10 scale) (sugar beet; Preemergence, Rate 125 g/ha): 0
- Sugarbeets plant response rating (sugar beet; [1]): 0
- Sugarbeets plant response rating (sugar beet; [2]): 3
- Sugarbeets plant response rating (sugar beet; [3]): 0
- Sugarbeets plant response rating (sugar beet; [4]): 0
- Plant response rating, Sugarbeets (sugar beet; [5]): 0
- Wheat plant response rating (0 to 10 scale) (wheat; Preemergence, Rate 125 g/ha): 0
- Wheat plant response rating (wheat; [1]): 0
- Wheat plant response rating (wheat; [2]): 0
- Wheat plant response rating (wheat; [3]): 0
- Wheat plant response rating (wheat; [4]): 0
- Plant response rating, Wheat (wheat; [5]): 0
- Nutsedge plant response rating (0 to 10 scale) (purple nutsedge; Preemergence, Rate 125 g/ha): 0
- Nutsedge plant response rating (purple nutsedge; [1]): 0
- Nutsedge plant response rating (purple nutsedge; [3]): 0
- Nutsedge plant response rating (purple nutsedge; [4]): 0
- Plant response rating, Nutsedge (purple nutsedge; [5]): 0
- Barnyardgrass plant response rating (bamyardgrass; [7]): 0
- Barnyardgrass plant response rating (bamyardgrass; [8]): 0
- Barnyardgrass plant response rating (bamyardgrass; [9]): 0
- Barnyardgrass plant response rating (bamyardgrass; [10]): 0
- Wild oats plant response rating (0 to 10 scale) (wild oat; Preemergence, Rate 125 g/ha): 0
- Wild oats plant response rating (wild oat; [1]): 0
- Wild oats plant response rating (wild oat; [2]): 1
- Wild oats plant response rating (wild oat; [3]): 0
- Wild oats plant response rating (wild oat; [4]): 0
- Plant response rating, Wild oats (wild oat; [5]): 0
